Assay results taken from patent US20260207758A1, “NA[…]-BASED CONJUGATE FOR […] INTO B CELL AND T CELL AND USES THEREOF” (priority 2022, published 2026).

What was measured:
Format in all cases: cell-based
[1] = system: B cells (primary CD19+ B cells); assay: Binding of Cy5.5-labeled targeting peptide, confocal microscopy; conditions: 100 μM Cy5.5-labeled peptide, 1 hour
Experimental: (§1) A B cell/T cell targeting peptide (BTBP, SEQ ID NO: 17) was labeled with Cy5.5, and B cells (primary CD19+ B cells, PCS-800-018, ATCC) and T cells (primary CD8+ cytotoxic T cells, PCS-800-017, ATCC) were treated with 100 μM of the peptide for 1 hour. Then, the cells were fixed with 4% neutral formalin solution and measured using a confocal scanning microscope (LSM980 with Airyscan2, Carl Zeiss). […] Therefore, it was confirmed that BTBP effectively targeted both the B cells and the T cells.

[2] = system: T cells (primary CD8+ cytotoxic T cells); assay: as above; conditions: 100 μM Cy5.5-labeled peptide, 1 hour
Experimental: as §1

[3] = system: B cells (primary CD19+ B cells); assay: Binding of Cy5.5-labeled targeting peptide, flow cytometry; conditions: Cy5.5-labeled peptide
Experimental: as §1
(§2) In addition, the cells were washed three times with DPBS containing 5% FBS, and cells bound with Cy5.5-labeled BTBP were analyzed using flow cytometry (FIG. 7). As a result, it could be confirmed that the peptide of SEQ ID NO: 17 bound to B cells and T cells.

[4] = system: T cells (primary CD8+ cytotoxic T cells); assay: as above; conditions: Cy5.5-labeled peptide
Experimental: as §1, §2

Sequence: HTHGAARVPDHR [BTBP]
- fluorescence intensity in cell membranes [1]: significantly increased
- fluorescence intensity in cell membranes [2]: significantly increased
- binding to cells by flow cytometry [3]: bound
- binding to cells by flow cytometry [4]: bound
